The values below come from patent publication US20120238532A1, “TREATMENT OF HUMAN OSTEOSARCOMA” (CEDARS-SINAI MEDICAL CENTER, priority 2009, published 2012).

In one data set the test system is phospho-c-Jun and c-Fos. Kind of data set: Western blotting, phospho-c-Jun and c-Fos. The format is cell-based, human. Conditions: MG-63 and SAOS-2 cells. As for the experimental part:
(§1) Changes in protein level by CuB were checked by Western blotting. […] After 2, 9, and 20 hours of exposure, cells were harvested and immediately lysed with RIPA buffer (Millipore—Upstate, Temecula, Calif.) supplemented with protease inhibitor cocktail (Roche, San Francisco, Calif.), 0.5 mM PMSF (Roche), and 50 mM NaF (Sigma). After 20 minutes of incubation on ice, protein concentrations were measured by Bradford assay with Bio Rad protein assay solution (Bio-Rad, Hercules, Calif.) and samples were adjusted to the same protein concentration. Samples were mixed with 2× Laemmli sample buffer (Bio-Rad) with 5% β-mercaptoethanol (Sigma) and incubated at 95° C. for 10 min to denature the protein. After brief incubation on ice, proteins were separated by SDS-PAGE, transferred to nitrocellulose membrane (Sigma), and blotted with antibodies from either Cell Signaling Technology (Danvers, Mass.) or Santa Cruz Biotechnology (Santa Cruz, Calif.). Target proteins were visualized by Supersignal West Dura Substrate (Thermo-Pierce, Rockford, Ill.). GAPDH protein was used as a loading control.
Background: Immunoblotting shows a protein as a band on a membrane.

The next data set has as its system SAOS-2 cells. Kind of data set: Annexin V-FITC apoptosis assay, SAOS-2. The format is cell-based, human. The note with it: at ED50, 72 hours of exposure. On the procedure: (§2) Cells were harvested and fixed with 70% ethanol at regular time intervals. Fixed cells were stained with propidium iodide (PI) for flow cytometry analysis using BD FACScan (BD Biosciences, San Jose, Calif.). Distribution of cell cycle was analyzed by ModFit LT V2.0 software (Verity Software House, Topsham, Me.). […] After 24, 48, and 72 hours of exposure, cells were harvested and stained with PI and fluorescein isothiocyanate (FITC) using Annexin V-FITC apoptosis detection kit (BD Biosciences) according to the manufacturer's protocol. Cells were subjected to flow cytometry analysis within one hour of staining.

For data set [1], the system named is MG-63 cells. Kind of data set: Cell cycle analysis (PI, FACS), MG-63. The format is cell-based, human. On the procedure: as §2
The test system of data set [2] is clonogenic hematopoietic cells. Kind of data set: Colony-forming cell (CFC) assays of bone marrow. Conditions: day 35, 2 × 10^4 cells/well.
Procedure: Whole blood samples were obtained by submandibular bleeding and serum samples were harvested with serum separator tubes (BD Biosciences). Blood count and serum chemistry results were obtained by the Hemagen Analyst Benchtop Chemistry System (Hemagen Diagnostics, Inc. Columbia, Md.). Colony-forming cell (CFC) assays were performed as previously described (18).
In a further data set the test system is Akt. Kind of data set: Western blotting, Akt phosphorylation. It is filed as cell-based, human. Conditions: MG-63 cells. On the procedure: as §1
A further data set has as its target T1, ERK protein (Homo sapiens, UniProt P28482).
T1 construct: confluent MG-63 cells were harvested and lysed with lysis buffer; endogenous in cells; host or cells: MG-63 whole-cell lysate
Kind of data set: DARTS analysis, ERK. The format is binding. Conditions: MG-63 lysates; data not shown.

Another data set concerns MG-63 xenografts. Kind of data set: Immunohistochemistry of xenografts (HE, Ki-67, TUNEL). The format is in vivo, mice. Conditions: LD-CuB 0.5 mg/kg; day 35. The text has this: At autopsy, tumors and internal organs including liver, spleen, kidneys were excised, weighed, and then fixed in 10% PBS-buffered formalin and maintained in 70% ethanol. For IHC, fixed tumors and organs were embedded in paraplast (Oxford Labware, St. Louis, Mo.), cut in 6 μm thick sections, and stained with hematoxylin and eosin (HE) for histopathological examination.
For Ki-67 proliferation assay, tumor sections were deparaffinized with xylene and rehydrated through graded ethanol. Endogenous peroxidase activity was blocked with 3% hydrogen peroxide in methanol. […] After incubation, tumor sections were stained with diaminobenzidine (DAB) and counterstained with hematoxylin. Terminal deoxynucleotidyl transferase dUTP nick end labeling (TUNEL) apoptosis assay was performed using ApopTaq Plus Peroxidase In Situ Apoptosis Kit (Millipore) according to the manufacturer's protocol. Percent positive cells in representative microscopic fields were counted using ImageJ (17).

The test system of a further data set is ERK. Kind of data set: Western blotting, ERK phosphorylation. The format is cell-based, human. The note with it: MG-63 and SAOS-2 cells. On the procedure:
as §1

For a further data set, the target named is mTOR (Homo sapiens, UniProt P42345). Kind of data set: Western blotting, mTOR phosphorylation. It is filed as cell-based. Further details: endogenous in cells; host or cells: MG-63 and SAOS-2 cells. The note with it: MG-63 and SAOS-2 cells; at ED50, 2, 9, or 20 hours. On the procedure:
as §1

In data set [3] the test system is MG-63 cells. Kind of data set: MTT assay, MG-63 (dose-response, pulse-exposure, combination). The format is cell-based, human. Conditions: pulse-exposed at ED50 for 2, 9, and 20 hours. As for the experimental part:
7 human OS cell lines (U2OS, G292, MG-63, HT-161, HOS, SAOS-2, and SJSA) were used in the study. Each cell line except HT-161 was obtained from the American Type Culture Collection (ATCC, Rockville, Md.). HT-161 was obtained from Dr. Emil Bogenmann (13). All cell lines were tested and authenticated prior to use according to cell line verification test recommendations by ATCC. OS cell lines were maintained in DMEM medium (Mediatech Inc., Herndon, Va.) supplemented with 10% fetal bovine serum (FBS; Atlanta Biological, Lawrenceville, Ga.) in a humidified incubator at 37° C. supplied with 5% CO2. Only the cells in exponential growth phase were used in the study.
Cell growth and survival were measured by 3-(4,5-dimethylthiazol-2-yl)-2,5-diphenyltetrazolium bromide (MTT) assay. […] After 48 hours of incubation, 10 μl of 5 mg/ml MTT solution (Sigma-Aldrich, St. Louis, Mo.) was added to each well and incubated further for 2 hours. […] For pulse-exposure experiments, MG-63 and SAOS-2 cells were seeded in 96-well plates and exposed to CuB at their ED50. After 2, 9, and 20 hours of exposure, cells were washed twice with PBS and incubated further in CuB-free media. Cell growth was checked by MTT assay at 24, 48, and 72 hours.
Calcusyn 2.0 (Biosoft, Ferguson, Mo.) was used for CI analysis.
In general terms: Tetrazolium dyes change colour on reduction, which living cells bring about.

T1 sequence (P28482 2-360 limits assumed): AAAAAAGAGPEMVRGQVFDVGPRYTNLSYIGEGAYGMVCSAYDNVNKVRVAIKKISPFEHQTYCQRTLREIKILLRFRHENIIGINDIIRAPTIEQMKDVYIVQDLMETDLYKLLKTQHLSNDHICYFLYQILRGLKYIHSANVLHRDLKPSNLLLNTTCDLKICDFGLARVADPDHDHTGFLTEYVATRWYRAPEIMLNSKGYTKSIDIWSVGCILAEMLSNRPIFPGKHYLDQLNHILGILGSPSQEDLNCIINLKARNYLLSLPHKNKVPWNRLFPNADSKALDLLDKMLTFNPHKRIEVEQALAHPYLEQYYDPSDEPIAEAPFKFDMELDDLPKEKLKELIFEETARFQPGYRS

For `CC(=O)OC(C)(C)/C=C/C(=O)[C@](C)(O)[C@H]1[C@H](O)C[C@@]2(C)[C@@H]3CC=C4[C@H](C[C@H](O)C(=O)C4(C)C)[C@]3(C)C(=O)C[C@]12C` [CuB, cucurbitacin B], the “phospho-c-Jun level and c-Fos expression” value in the data set on phospho-c-Jun and c-Fos was “Decreased level of phospho-c-Jun and subsequent decrease in c-Fos expression”. The apoptotic cells in the data set on SAOS-2 cells came out at 96%. Further, the “increase of G2/M phase” value in the data set with MG-63 cells [1] (20 hours of exposure) is “around 3 fold”. In addition, the G2/M phase in the data set with MG-63 cells [1] (20 hours of exposure at ED50 (control 27%)) turned out to be 76%. Further, in data set [2] (HD-CuB 1.0 mg/kg), the “BFU-E, number of colonies” value is on record as 8.3 ± 1.6; the “CFU-GEMM, number of colonies” value is on record as 3.8 ± 0.8; the “CFU-GM, number of colonies” value was determined as 64.6 ± 4.6. In addition, in [2] (LD-CuB 0.5 mg/kg), the “BFU-E, number of colonies” value amounted to 9.7 ± 1.4; the “CFU-GEMM, number of colonies” value came to 4.2 ± 0.8; the “CFU-GM, number of colonies” value was 69.8 ± 3.0. For the same compound, the “Akt phosphorylation at S473” value with Akt is reported as “Inhibition of Akt phosphorylation at S473 was observed in MG-63 cells”. Also, at ERK protein, the “protection of ERK protein (DARTS)” value is given as “could not find any evidence that the ERK protein was protected by CuB”. Further, in the data set with MG-63 xenografts, the HE-stained tumors entry is “decreased tumor area and smaller blood vessels”. In addition, the ERK phosphorylation result in the data set with ERK is “inhibited ERK phosphorylation without changing the total levels of ERK in both cells”. Besides, at mTOR, the “mTOR phosphorylation at S2448 and S2481” value was “inhibition of mTOR phosphorylation at S2448 and S2481 without affecting the total level of mTOR”. In addition, the “cell death after pulse-exposure” value in the data set on MG-63 cells [3] is recorded as “longer exposure to CuB induced more cell death”.
